The values below come from PMC5838219 (2018).

The subject of assay [1] is dGsw^121 (RNA, riboswitch) AAUGAAUAUAAAAGAAACUUAUACAGGGUAGCAUAAUGGGCUACUGACCCCGCCUUCAAACCUAUUUGGAGACUAUAAGUGAAAAACCACUCUUUAAUUAUUAAAGUUUCUUUUUAUGUC
In words: NMR (1H,15N-TROSY, imino protons). The note with it: 50 mM KCl, 25 mM K phosphate, 6 eq. Mg2+; pH 6.2, 298 K; 100 µM RNA, 2 eq. ligand; after photolysis; antiterminator folds only to ~80%.

Assay [2] has as its system dGsw^121,caged (RNA, riboswitch, (S)-NPE photocage at C4 position of nucleobases of U108, U110 and U112) AAUGAAUAUAAAAGAAACUUAUACAGGGUAGCAUAAUGGGCUACUGACCCCGCCUUCAAACCUAUUUGGAGACUAUAAGUGAAAAACCACUCUUUAAUUAUUAAAGUUUCUUUUUAUGUC
Briefly: NMR (1H,15N-TROSY, imino protons). Conditions: 50 mM KCl, 25 mM K phosphate, 6 eq. Mg2+; pH 6.2, 298 K; 100 µM RNA, 2 eq. ligand; before photolysis.

Each structure is given as a SMILES string.

As to `Nc1nc2c(ncn2[C@H]2C[C@H](O)[C@@H](CO)O2)c(=O)[nH]1`, the binding result in assay [1] and in assay [2] was “yes” in each case.
